Format in all cases: functional
One assay relates to M14. Description: Growth inhibition of human M14 cells assessed as cell growth at 10^-4 M incubated for 48 hrs by sulforhodamine B assay relative to control. The settings on record: M14, 48 h, read-out: Activity. For orientation: The SRB assay estimates cell density from bound dye.
In another assay the test system is MOLT-4. Description: Growth inhibition of human MOLT4 cells assessed as cell growth at 10^-5 M incubated for 48 hrs by sulforhodamine B assay relative to control. The settings on record: MOLT-4, 48 h, read-out: Activity.
For another assay, the system named is COLO 205. Description: Growth inhibition of human COLO205 cells assessed as cell growth at 10^-5 M incubated for 48 hrs by sulforhodamine B assay relative to control. The settings on record: COLO 205, 48 h, read-out: Activity.
For another assay, the system named is Hs-578T. Description: Growth inhibition of human Hs 578T cells assessed as cell growth at 10^-4 M incubated for 48 hrs by sulforhodamine B assay relative to control. The settings on record: read-out: Activity.
A further assay deals with NCI-H522. Nature of the assay: Growth inhibition of human NCI-H522 cells assessed as cell growth at 10^-4 M incubated for 48 hrs by sulforhodamine B assay relative to control. The settings on record: NCI-H522, 48 h, read-out: Activity.

From ChEMBL document CHEMBL4145553, “Design, synthesis, and biological evaluation of novel amide and hydrazide based thioether analogs targeting Histone deacteylase (HDAC) enzymes” (Eur J Med Chem, 2018) come the findings set out here.

On to `CCS/C(Nc1ccccc1)=C(\C#N)C(=O)N/N=C\c1ccc(Cl)cc1Cl`, for which the growth at 100 µM in the assay on M14 is -3%. Further, the growth at 10 µM with MOLT-4 worked out at 22%.

Regarding `CCS/C(Nc1ccccc1)=C(\C#N)C(=O)Nc1ccc(OC)cc1`, the growth at 10 µM in the assay on COLO 205 is 1%; in the assay on MOLT-4 it was 21%. The results for the growth at 100 µM with Hs-578T and in the assay with NCI-H522 were 16% and -11%, respectively.
